# Patent US20240287064A1, “TRICYCLIC COMPOUND USED AS GPR84 ANTAGONIST” (Wuhan Humanwell Innovative Drug Research and Development …, priority 2021, published 2024)
# Experiments:
# [1] = biological target: T1, human GPR84 receptor (Homo sapiens, UniProt Q9NQS5); experiment: GPR84 antagonistic effect determination (cAMP assay, forskolin and 6-OAU stimulation); type: cell-based; settings: CHO stably transfected cell line highly expressing human GPR84; 2.5 μM Forskolin & 200 nM 6-OAU; cAMP readout; read-out: Antagonistic effect against GPR84, IC50
# T1 construct: expressed in transfected cells; host or cells: CHO
# Experimental: The antagonistic effect of the compound against GPR84 was determined in a CHO stably transfected cell line highly expressing the human GPR84 receptor. The stably transfected cells were cultured until 80% confluence; the cells were collected by trypsinization, counted, and then inoculated into a 384-well plate at 5 L/well. 10× compound working solution was prepared with 1× Stimulation Buffer. […] After the reaction was completed, the content of CAMP in the cells was quantified according to the method in the instructions of the cAMP assay kit (Perkin Elmer, Cat #TRF0263). The antagonistic effect (IC50 value) of the test compounds was calculated.
# [2] = Pharmacokinetic experiment in mice; type: in vivo; settings: mouse; male ICR mice, oral gavage 3 mg/kg, plasma
# Experimental: For the pharmacokinetic experiment in mice, male ICR mice, 20 to 25 g, were used and fasted overnight. Three mice were taken and orally administered by gavage (3 mg/kg): blood was collected before the administration, and at 15 min, 30 min, 1 hour, 2 hours, 4 hours, 8 hours, and 24 hours after the administration. The blood samples were centrifuged at 6800 g for 6 min at 2 to 8° C., and plasma was collected and stored at −80° C. 20 μL of plasma at each time point was taken, and added with 200 μL of methanol containing 100 ng/mL internal standard. The mixture was vortexed, mixed evenly, and then centrifuged at 18000 g for 7 min at 2 to 8° ° C. 200 μL of the mixture was transferred to a 96-well injection plate for LC-MS/MS quantitative analysis. The main pharmacokinetic parameters were analyzed using WinNonlin 7.0 software with non-compartmental model.
# T1 sequence (Q9NQS5 whole entry): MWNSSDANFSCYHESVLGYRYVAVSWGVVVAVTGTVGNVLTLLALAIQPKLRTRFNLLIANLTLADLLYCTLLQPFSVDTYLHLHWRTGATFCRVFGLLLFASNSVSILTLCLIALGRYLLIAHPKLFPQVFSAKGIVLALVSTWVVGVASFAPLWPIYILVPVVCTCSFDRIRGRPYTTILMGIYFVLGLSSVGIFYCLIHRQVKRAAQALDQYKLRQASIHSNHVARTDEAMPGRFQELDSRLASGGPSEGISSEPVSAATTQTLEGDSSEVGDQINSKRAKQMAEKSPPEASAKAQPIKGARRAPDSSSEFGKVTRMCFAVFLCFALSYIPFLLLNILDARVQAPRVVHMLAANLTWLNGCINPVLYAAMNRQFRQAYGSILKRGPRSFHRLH
IC50 [1] [µM],AUC(0-t) [2] [µg·h/mL],Cmax [2] [µg/mL],Tmax [2] [min],half-life [2] [min],SMILES
0.0272,54.4,14.8,30,61.8,"O=c1nc(OCC23CC(CO2)C3)cc2n1CCc1cc(C#CC3CC3)ccc1-2 [Compound I-1, 2-((2-oxabicyclo[2.1.1]hexan-1-yl)methoxy)-9-(cyclopropylethynyl)-6,7-dihydro-4H-pyrimido[6,1-α]isoquinolin-4-one]"
–,7.28,4.12,30,229,"O=c1nc(OC[C@@H]2COCCO2)cc2n1CCc1cc(C#CC3CC3)ccc1-2 [Control compound, reference compound]"
